From US20100016213A1, “USE OF A DITERPENOID COMPOUND FOR TREATING DIABETES” (National Taiwan University, priority 2008, published 2010)

Experiments:
Assay type in all cases: in vivo
normal mice [1] = assay: Lowering plasma glucose level, intraperitoneal injection, normal mice; conditions: for Plasma Glucose Level, After / Plasma Glucose Level, Before: Normal mice; for Plasma Glucose Level, After: after treatment; for Plasma Glucose Level, Before: before treatment
Description: Normal and streptozotocin (STZ)-induced diabetic mice were administered with borapetoside A (5.0 mg/kg), borapetoside C (5.0 mg/kg), glibenclamide (5.0 mg/kg), metformin (500.0 mg/kg), or a vehicle control via intraperitoneal injection. STZ-induced diabetic mice are a well-known mouse model of type I diabetes (insulin dependent). See, e.g., Liu I M, et al., Neuroscience Letters 2001; 307: 81-84. Glibenclamide and metformin serve as two positive controls in this study.
The plasma glucose levels of the treated mice were determined before and one hour after administration. The activity of lowering plasma glucose levels (AL) is calculated following the formula: […]
Borapetoside C was administered to normal mice at 0.1, 1.0, 3.0, and 5.0 mg/kg and to STZ-diabetic mice at 0.1, 1.0, 3.0, and 5.0 mg/kg. The plasma glucose levels of the treated mice were examined before and after treatment.

[2] = tested on: DIO-induced diabetic mice; assay: Lowering plasma glucose level, intraperitoneal injection, diet-induced obesity diabetic mice (type II diabetes model); conditions: for plasma glucose level one hour after treatment: basal (untreated) 174.6±7.7 mg/dL
Description: Normal and diet-induced obesity diabetic mice (“DIO-induced diabetic mice) were administered with borapetoside A (5.0 mg/kg), borapetoside C (5.0 mg/kg), glibenclamide (5.0 mg/kg), metformin (500.0 mg/kg), or a vehicle control via intraperitoneal injection. DIO-induced diabetic mice are a well-known mouse model of type II diabetes (non-insulin dependent). See Liu et al., J Mol. Endocrinol. 2008.
The plasma glucose levels of the treated mice were determined before and one hour after administration. The activities of these compounds for lowering plasma glucose levels were calculated as described above.
Borapetoside C was administered to DIO-induced diabetic mice at 0.1, 1.0, 3.0, and 5.0 mg/kg and the plasma glucose levels were examined before and after administration. The basal plasma glucose concentration in diet-induced diabetic mice (untreated) was 174.6±7.7 mg/dL. One hour after treatment, the plasma glucose levels in mice treated with vehicle control, 0.1 mg/kg borapetoside C, 1.0 mg/kg borapetoside C, 3.0 mg/kg borapetoside C, and 5.0 mg/kg borapetoside C were 172.5±10.9 mg/dL, 170.5±6.8 mg/dL, 127.9±6.0 mg/dL, 121.3±4.3 mg/dL and 119.9±4.6 mg/dL, respectively.

normal mice [3] = assay: Lowering plasma glucose levels via oral administration, normal mice; conditions: oral 10.0 mg/kg, sixty minutes after treatment, mean ± SEM, six animals
Description: (§1) Normal, STZ-induced diabetic mice, and diet-induced diabetic mice were administered orally with 10.0 mg/kg borapetoside C, glibenclamide or metformin as a positive control, and a vehicle control. The plasma glucose levels of the treated mice were determined before and sixty minutes after treatment and the results thus obtained were shown in Table 3 below.

STZ-diabetic mice (IDDM) [4] = assay: Lowering plasma glucose levels via oral administration, STZ-diabetic mice; conditions: oral 10.0 mg/kg, sixty minutes after treatment, mean ± SEM, six animals
Description: as §1

STZ-diabetic mice (IDDM) [5] = assay: Plasma insulin levels before and after treatment (Insulin ELISA), STZ-diabetic mice; conditions: for Plasma insulin, Pre-treatment: before treatment; for Plasma insulin, post-treatment: one hour after treatment
Description: (§2) Normal mice, STZ-induced diabetic mice, and diet-induced diabetic mice were administered with a vehicle control, borapetoside A (5.0 mg/kg), borapetoside C (at various doses), glibenclamide (5.0 mg/kg) or metformin (500 mg/kg) by intraperitoneal injection. These mice were examined for their blood insulin levels before and one hour after treatment, using the Insulin(Rat) ELISA kit obtained from Penisula Lab. Inc., San Carlos, Calif., USA.

[6] = tested on: Diet-induced diabetic (NIDDM) mice; assay: Plasma insulin levels before and after treatment (Insulin ELISA), diet-induced diabetic mice; conditions: for Plasma insulin, Pre-treatment: before treatment; for Plasma insulin, post-treatment: one hour after treatment
Description: as §2

STZ-diabetic mice(IDDM) = assay: Glycogen content in skeletal muscle, STZ-diabetic mice; conditions: 5 mg/kg i.p., 30 minutes after injection
Description: Normal, STZ-induced diabetic, and DIO-induced diabetic mice were intraeritoneally injected with borapetoside C (5 mg/kg) and Actrapid (0.5 IU/kg; a short-acting insulin provided by Novo Nordisk) or metformin (500 mg/kg). Their glycogen contents in skeletal muscle were determined 30 minutes after injections.

[7] = tested on: STZ-induced diabetic mice; assay: Insulin sensitivity: plasma glucose reduction with insulin plus borapetoside C or vehicle, STZ-induced diabetic mice; conditions: thirty minutes after insulin
Description: The effect of borapetoside C on insulin sensitivity was tested following the method described in Liu, et al., Clinical and Experimental Pharmacology and Physiology 2005; 32: 649-654. Normal mice (n=6), STZ-induced diabetic mice (n=5), and DIO-induced diabetic mice (n=7) were treated with insulin at various doses (i.e., 0.1 IU/kg, 0.5 IU/kg, and 1.0 IU/kg) together with either borapetoside C (0.1 mg/kg) or a vehicle control. Their plasma glucose levels were examined before and thirty minutes after insulin administration. The activity of lowering plasma glucose levels (AL) was calculated following the formula described in Example 2 above.

[8] = tested on: liver phosphoenolpyruvate carboxykinase (PEPCK); assay: Liver PEPCK levels by western blot in STZ-induced mice; conditions: borapetoside C 5.0 mg/kg, twice per day for 7 days, insulin dose not given
Description: To characterize the effect of borapetoside C on liver glucose utilization, levels of liver phosphoenolpyruvate carboxykinase (PEPCK) were examined by western blot analysis in STZ-induced mice treated with borapetoside C (5.0 mg/kg, twice per day for 7 days), insulin, or a vehicle control.

Compound: COC(=O)C1=CCC[C@H]2[C@]3(C)C[C@@H](c4ccoc4)OC(=O)[C@@H]3C[C@@H](O[C@@H]3O[C@H](CO)[C@@H](O)[C@H](O)[C@H]3O)[C@@]12C [borapetoside C]
- Plasma Glucose Level, After (normal mice [1]; 0.1 mg/kg): 97.7 ± 6.2 mg/dL
- Plasma Glucose Level, Before (normal mice [1]; 0.1 mg/kg): 99.7 ± 3.8 mg/dL
- Plasma Glucose Level, After (normal mice [1]; 1.0 mg/kg): 82.6 ± 2.9 mg/dL
- Plasma Glucose Level, Before (normal mice [1]; 1.0 mg/kg): 96.4 ± 4.2 mg/dL
- Plasma Glucose Level, After (normal mice [1]; 3.0 mg/kg): 79.4 ± 6.9 mg/dL
- Plasma Glucose Level, Before (normal mice [1]; 3.0 mg/kg): 96.3 ± 8.0 mg/dL
- Plasma Glucose Level, After (normal mice [1]; 5.0 mg/kg): 67.0 ± 4.5 mg/dL
- Plasma Glucose Level, Before (normal mice [1]; 5.0 mg/kg): 98.2 ± 3.9 mg/dL
- Activities of Lowering Plasma Glucose Levels (AL) (normal mice [1]; normal mice, 5.0 mg/kg intraperitoneal injection, one hour after administration): 36.2 ± 5.6%
- plasma glucose level one hour after treatment ([2]; 0.1 mg/kg): 170.5 ± 6.8 mg/dL
- plasma glucose level one hour after treatment ([2]; 1.0 mg/kg): 127.9 ± 6.0 mg/dL
- plasma glucose level one hour after treatment ([2]; 3.0 mg/kg): 121.3 ± 4.3 mg/dL
- AL (activity of lowering plasma glucose levels) ([2]; 5.0 mg/kg intraperitoneal injection, one hour after administration): 29.4±1.0%
- plasma glucose level one hour after treatment ([2]; 5.0 mg/kg): 119.9 ± 4.6 mg/dL
- Activity of lowing plasma glucose levels (%) (normal mice [3]): 23.1 ± 2.8 %
- Activity of lowing plasma glucose levels (%) (STZ-diabetic mice (IDDM) [4]): 17.7 ± 1.7 %
- Plasma insulin, Pre-treatment (STZ-diabetic mice (IDDM) [5]; 0.1 mg/kg i.p.): 15.2 ± 0.8 pmol/L
- Plasma insulin, post-treatment (STZ-diabetic mice (IDDM) [5]; 0.1 mg/kg i.p.): 16.3 ± 0.9 pmol/L
- Plasma insulin, Pre-treatment (STZ-diabetic mice (IDDM) [5]; 0.5 mg/kg i.p.): 15.5 ± 0.6 pmol/L
- Plasma insulin, post-treatment (STZ-diabetic mice (IDDM) [5]; 0.5 mg/kg i.p.): 15.9 ± 0.6 pmol/L
- Plasma insulin, Pre-treatment (STZ-diabetic mice (IDDM) [5]; 1.0 mg/kg i.p.): 15.7 ± 0.8 pmol/L
- Plasma insulin, post-treatment (STZ-diabetic mice (IDDM) [5]; 1.0 mg/kg i.p.): 15.9 ± 0.4 pmol/L
- Plasma insulin, Pre-treatment (STZ-diabetic mice (IDDM) [5]; 3.0 mg/kg i.p.): 13.8 ± 1.6 pmol/L
- Plasma insulin, post-treatment (STZ-diabetic mice (IDDM) [5]; 3.0 mg/kg i.p.): 14.8 ± 0.5 pmol/L
- Plasma insulin, Pre-treatment (STZ-diabetic mice (IDDM) [5]; 5.0 mg/kg i.p.): 15.0 ± 0.5 pmol/L
- Plasma insulin, post-treatment (STZ-diabetic mice (IDDM) [5]; 5.0 mg/kg i.p.): 14.4 ± 0.6 pmol/L
- Plasma insulin, Pre-treatment ([6]; 0.1 mg/kg i.p.): 110.3 ± 4.5 pmol/L
- Plasma insulin, post-treatment ([6]; 0.1 mg/kg i.p.): 114.0 ± 7.6 pmol/L
- Plasma insulin, Pre-treatment ([6]; 0.5 mg/kg i.p.): 116.5 ± 5.7 pmol/L
- Plasma insulin, post-treatment ([6]; 0.5 mg/kg i.p.): 174.7 ± 4.8 pmol/L
- Plasma insulin, Pre-treatment ([6]; 1.0 mg/kg i.p.): 111.1 ± 2.0 pmol/L
- Plasma insulin, post-treatment ([6]; 1.0 mg/kg i.p.): 178.5 ± 14.6 pmol/L
- Plasma insulin, Pre-treatment ([6]; 3.0 mg/kg i.p.): 113.2 ± 2.8 pmol/L
- Plasma insulin, post-treatment ([6]; 3.0 mg/kg i.p.): 254.0 ± 23.4 pmol/L
- Plasma insulin, Pre-treatment ([6]; 5.0 mg/kg i.p.): 107.4 ± 5.5 pmol/L
- Plasma insulin, post-treatment ([6]; 5.0 mg/kg i.p.): 255.8 ± 15.9 pmol/L
- Glycogen content (μmol/g wet weight) (STZ-diabetic mice(IDDM)): 23.2 ± 0.7 μmol/g wet weight
- AL (%) ([7]; Borapetoside C 0.1 mg/kg together with Insulin 0.1 IU/kg): 10.5 ± 1.4%
- AL (%) ([7]; Borapetoside C 0.1 mg/kg together with Insulin 0.5 IU/kg): 18.9 ± 2.1%
- AL (%) ([7]; Borapetoside C 0.1 mg/kg together with Insulin 1.0 IU/kg): 32.2 ± 2.1 %
- liver PEPCK levels versus vehicle control-treated mice (western blot) [8]: much lower
